“And” between values parts separate entries of the source, which are not always exact repeats. Equal values may be shown once. Read-outs that look alike come from different tables or passages of the source.
What was measured:
[1] = test system: migraine; settings: cited from earlier work; for reduction of migraine incidents vs. placebo: 50 mg/day or less
[2] = Retrospective chart review of topiramate side effect profile in 20 migraine patients; assay type: in vivo, human; design: key: 1: mild or none; 2: tolerable, not treatment limiting; 3: warrants trial of topiramate dose reduction; 4: considering stopping topiramate treatment strongly; settings: topiramate alone, monotherapy for at least 6 weeks; one line per patient at the indicated daily dosage
[3] = test system: cluster headaches; settings: cited from earlier work
[4] = test system: migraine; assay: Retrospective chart review of migraine treatment efficacy in 20 headache clinic patients; assay type: in vivo, human; design: key: 1: no measurable efficacy; 2: some measurable difference in severity and or frequency of headache; 3: modest improvement in severity or frequency of headache; 4: headache frequency improvement either 50% or greater in frequency, severity or both; settings: topiramate alone, monotherapy for at least 6 weeks; one line per patient at the indicated daily dosage
Experimental: (§1) In a headache clinic, 20 patients suffering from migraine are treated with a dosage of topiramate and then an additional, secondary therapeutic component comprising one of the following therapeutic agents, or mixture of agents: 1) a commercially available combination tablet sold under the name Migrelief® dietary supplement contains puracol feverfew extract (comprising partheolide), magnesium citrate/oxide (1:1), and riboflavin; and 2) a second medicine having the trade name Migravent® natural supplement containing butterbur extract (including petasin and isopetasin), and a blend of riboflavin, magnesium and coenzyme Q10; these combined ingredients are present in a “proprietary blend” of 876 mg.
(§2) In twenty patients suffering from migraine the effect of augmentation of topiramate treatment was formally documented. […] Patients were treated in combination therapy with topiramate and the indicated second agent for 6 weeks before side effect and efficacy data were obtained for comparison with the monotherapy data. Dosages of the second therapeutic component was as follows: Migravent: 150 mg pyrrolizidine alkaloids (PA) free) and 876 mg (Riboflavin, Magnesium, Co-enzyme Q-10 [propriety blend]); Migralief: Magnesium citrate and oxide 360 mg, riboflavin 400 mg and Puracol Feverfew (Tanacetum parthenium). […]

[5] = test system: migraine; assay: as above; assay type: in vivo, human; design: concentration or dose not given beside the values; settings: topiramate alone, monotherapy for at least 6 weeks; one line per patient at the indicated daily dosage
Experimental: as §1, §2

[6] = test system: Leishmania amazonensis; settings: cited from earlier work
[7] = test system: acute myelogenous leukemia cells; settings: normal bone marrow cells relatively unscathed; cited from earlier work
[8] = cited from earlier work

Compound: 2,3:4,5-Di-O-isopropylidene-β-D-fructopyranose sulfamate [Topiramate]
- reduction of migraine incidents vs. placebo [1]: no statistical significance
- reduction of migraine incidents vs. placebo ([1]; listed as toprimate): did not show statistically significant efficacy
- Side Effects ([1]; 100 mg or more per day): significant unacceptable side effects
- prophylactic effect versus placebo ([1]; 100 mg per day or greater): statistically significant prophylactic effects
- patients reporting an increase in migraine and other headaches ([1]; human, in vivo): > 1%
- reduction of migraine frequency ([1]; patients having an average of 5.5 migraine per month, placebo: one headache per month): about 2 headaches per month
- Side Effects [2]: 1 (4×) and 4 (8×) and 3 (6×) and 2 (2×)
- rapid relief of cluster headaches ([3]; 50, 100, or 125 mg/day): inadequate in providing rapid relief
- time to control the cluster headaches ([3]; daily delivery in the 50-125 mg range): 1-3 weeks
- Efficacy [4]: 2 (9×) and 3 (8×)
- Efficacy [5]: 4 (headache frequency improvement either 50% or greater in frequency, severity or both)

Compound: C=C1C(=O)O[C@H]2[C@H]1CC/C(C)=C/CC[C@@]1(C)O[C@@H]21 [Parthenolide]
- activity against Leishmania amazonensis [6]: active against the parasite Leishmania amazonensis
- effect on acute myelogenous leukemia cells [7]: destroy acute myelogenous leukemia cells by inducing apoptosis
- solubility in water [8]: limited solubility in water
